From patent US20220050096A1, “ANALYTE-SENSITIVE PROBES AND CONTACT LENS FOR DIAGNOSIS OF OCULAR PATHOLOGIES” (University Of Maryland, Baltimore, priority 2020, published 2022)
Blank lines part the entries; values can stand above or below the compound they belong to.

Tests used:
[1] = Sodium binding affinity (mid-point of response) and sodium-dependent intensity of probes bound to contact lenses; settings: lens not named; read-out: binding constant after addition of linker, hydrophobic moiety and/or binding to the lenses
Method: (§1) Fluorescence Spectroscopic Measurements. Fluorescence intensities and intensity decays were measured using a Varian™ Eclipse 4 spectrofluorometer and a FluoTime300 instrument from PicoQuant™ (Berlin, Germany) and analyzed with the EasyTau™ software. The excitation source was a 473 nm laser diode with a repetition rate of 40 MHZ and a pulse width less than 100 ps. In other embodiments, the excitation source for SG-PL was at 495 nm from a Solea™ supercontinuum laser (PicoQuant™, Germany) and a 375 nm laser diode (PDL 375, PicoQuant™), a repetition rate of 40 MHz, and a pulse width less than 100 ps. Some intensity and lifetime measurements for SG-PL (as indicated) were performed using Alba V confocal fluorescence lifetime microscopy, FLIM (ISS, Urbana, Ill.), with excitation source of a 473 nm laser diode with a repetition rate of 40 MHz and a pulse width near 250 ps.
Sodium Binding Affinity. The sodium affinity of the labeled lenses can be described in terms of the dissociation constant. The dissociation reaction for the probe complexed with Na+ can be written as
P—Na^+↔P+Na^+ (equation 4) […]
Binding affinity curves of SG-PL with sodium in Biofinity™ and MyDay™ lenses were produced by plotting the normalized intensities with respect to the added sodium concentrations. The curves were measured by intensities at peak maximum (FIG. 38A) or amplitude-weighted lifetimes (FIG. 38B). […]

[2] = Chloride-dependent intensity decay analysis of SPQ-C18 in MyDay contact lenses, 20 mM MOPS pH 7.3; type: physicochemical
Method: as §1
Intensity decays were measured at the emission maximum with the band of 10 to 20 nm, analyzed in terms of the multi-exponential model:
I(t)=Σαi exp(−t/ti) (equation 1)
where ti are the individual decay times and αi the initial time-zero amplitudes. The mean decay time can be represented in two ways. The average lifetime is given by:
where Σαi=1.0 and Σfi=1.0. The term fi=αi τi is proportional to the fractional contribution of each component to the total intensity decay. The term τi/Σαi τi is the fractional contribution to the steady state emission. Here, we use the amplitude-weighted lifetime given by
which is appropriate when the emission is from a single fluorophore with a changing quantum yield. For a single exponential decay, the lifetime is given by τ=1.0/(knr+Γ) and the quantum yield is given by Q=Γ/(knr+Γ) where knr is the sum of all non-radiative decay rates and Γ is the radiative decay rate. The value of Γ is determined by the molecular extinction coefficient that remains constant under most conditions. For a single type of fluorophore with a constant value of Γ the normalized αi values represent the molecular fraction of each decay time component. The value of αi and τi were determined by non-linear least squares fitting using PicoQuant™ software.
Quenching by Chloride. Collisional quenching occurs, for example, when SPQ-C18 (also referred to as OD-MQB (N-Octadecyl-6-methoxyquinolinium bromide)) has a diffusion collision with a chloride ion. The intensities (I) and lifetimes (6) are analyzed using the Stern-Volmer equation,
SPQ-C18 was synthesized using 6-methoxy quinolinium (SPQ) and 1-bromooctadecane (C18) as described in the art. Lenses were labeled by incubation with 3 ml of a 1 μM solution of SPQ-C18 in methanol-water. SPQ-C18 bound rapidly to the Biofinity™ lenses. […] Unless stated otherwise, all spectral measurements conducted for the present study were performed in 20 mM MOPS buffer, 8 mM KCl, pH 7.2, at room temperature.

Kd [1]: ~100 mM
Structure (SMILES): COc1cc(N2CCOCCOCCN(c3cc(OC)c(NC(=O)c4ccc(-c5c6cc(Cl)c(=O)cc-6oc6cc([O-])c(Cl)cc56)c(C(=O)[O-])c4)cc3OC)CCOCC2)c(OC)cc1NC(=O)c1ccc(-c2c3cc(Cl)c(=O)cc-3oc3cc([O-])c(Cl)cc23)c(C(=O)[O-])c1.C[N+](C)(C)C.C[N+](C)(C)C.C[N+](C)(C)C.C[N+](C)(C)C [SG]

f1 ([2]; NaCl 0 mM): 0.074 | f2 ([2]; NaCl 0 mM): 0.191 | f3 ([2]; NaCl 0 mM): 0.735 | α1 ([2]; NaCl 0 mM): 0.560 | α2 ([2]; NaCl 0 mM): 0.187 | α3 ([2]; NaCl 0 mM): 0.253 | τ1 ([2]; NaCl 0 mM): 1.03 ns | τ2 ([2]; NaCl 0 mM): 8.00 ns | τ3 ([2]; NaCl 0 mM): 22.78 ns | τf ([2]; NaCl 0 mM): 18.36 ns | τα ([2]; NaCl 0 mM): 7.83 ns | f1 ([2]; NaCl 10 mM): 0.078 | f2 ([2]; NaCl 10 mM): 0.315 | f3 ([2]; NaCl 10 mM): 0.607 | α1 ([2]; NaCl 10 mM): 0.496 | α2 ([2]; NaCl 10 mM): 0.290 | α3 ([2]; NaCl 10 mM): 0.214 | τ1 ([2]; NaCl 10 mM): 1.05 ns | τ2 ([2]; NaCl 10 mM): 7.22 ns | τ3 ([2]; NaCl 10 mM): 18.80 ns | τf ([2]; NaCl 10 mM): 13.76 ns | τα ([2]; NaCl 10 mM): 6.63 ns | f1 ([2]; NaCl 20 mM): 0.102 | f2 ([2]; NaCl 20 mM): 0.306 | f3 ([2]; NaCl 20 mM): 0.592 | α1 ([2]; NaCl 20 mM): 0.554 | α2 ([2]; NaCl 20 mM): 0.263 | α3 ([2]; NaCl 20 mM): 0.183 | τ1 ([2]; NaCl 20 mM): 1.12 ns | τ2 ([2]; NaCl 20 mM): 7.04 ns | τ3 ([2]; NaCl 20 mM): 19.59 ns | τf ([2]; NaCl 20 mM): 13.86 ns | τα ([2]; NaCl 20 mM): 6.05 ns | f1 ([2]; NaCl 40 mM): 0.126 | f2 ([2]; NaCl 40 mM): 0.375 | f3 ([2]; NaCl 40 mM): 0.499 | α1 ([2]; NaCl 40 mM): 0.590 | α2 ([2]; NaCl 40 mM): 0.275 | α3 ([2]; NaCl 40 mM): 0.136 | τ1 ([2]; NaCl 40 mM): 1.06 ns | τ2 ([2]; NaCl 40 mM): 6.78 ns | τ3 ([2]; NaCl 40 mM): 18.24 ns | τf ([2]; NaCl 40 mM): 11.78 ns | τα ([2]; NaCl 40 mM): 4.96 ns | f1 ([2]; NaCl 80 mM): 0.148 | f2 ([2]; NaCl 80 mM): 0.373 | f3 ([2]; NaCl 80 mM): 0.478 | α1 ([2]; NaCl 80 mM): 0.601 | α2 ([2]; NaCl 80 mM): 0.284 | α3 ([2]; NaCl 80 mM): 0.115 | τ1 ([2]; NaCl 80 mM): 1.05 ns | τ2 ([2]; NaCl 80 mM): 5.58 ns | τ3 ([2]; NaCl 80 mM): 17.70 ns | τf ([2]; NaCl 80 mM): 10.71 ns | τα ([2]; NaCl 80 mM): 4.25 ns | f1 ([2]; NaCl 140 mM): 0.177 | f2 ([2]; NaCl 140 mM): 0.368 | f3 ([2]; NaCl 140 mM): 0.455 | α1 ([2]; NaCl 140 mM): 0.649 | α2 ([2]; NaCl 140 mM): 0.253 | α3 ([2]; NaCl 140 mM): 0.099 | τ1 ([2]; NaCl 140 mM): 1.01 ns | τ2 ([2]; NaCl 140 mM): 5.39 ns | τ3 ([2]; NaCl 140 mM): 17.05 ns | τf ([2]; NaCl 140 mM): 9.92 ns | τα ([2]; NaCl 140 mM): 3.70 ns | f1 ([2]; NaCl 220 mM): 0.191 | f2 ([2]; NaCl 220 mM): 0.425 | f3 ([2]; NaCl 220 mM): 0.284 | α1 ([2]; NaCl 220 mM): 0.636 | α2 ([2]; NaCl 220 mM): 0.282 | α3 ([2]; NaCl 220 mM): 0.081 | τ1 ([2]; NaCl 220 mM): 0.94 ns | τ2 ([2]; NaCl 220 mM): 4.71 ns | τ3 ([2]; NaCl 220 mM): 14.81 ns | τf ([2]; NaCl 220 mM): 7.87 ns | τα ([2]; NaCl 220 mM): 3.13 ns
Structure (SMILES): CCCCCCCCCCCCCCCCCC[n+]1cccc2cc(OC)ccc21 [SPQ-C18, N-Octadecyl-6-methoxyquinolinium bromide]
